The source of these data is the NIST ThermoML archive (doi:10.1016/j.jct.2012.09.017).

Numbers after ± are expanded uncertainties.

The data set can be described thus: activity coefficient (dimensionless); of the first substance listed, at infinite dilution; xn = mol fraction of the nth substance listed. The note with it: 101 kPa, Liquid, Chromatography, x1 = 0.

`C1CCCCC1` [cyclohexane] + CCCC[N+]1(C)CCCC1.N#C[B-](C#N)(C#N)C#N: the activity coefficient (318.15 K) is 8.51 ± 0.44; the activity coefficient (323.15 K) stood at 8.26 ± 0.43; the activity coefficient (333.15 K) was determined as 7.83 ± 0.4; the activity coefficient (343.15 K) was found to be 7.44 ± 0.38; the activity coefficient (353.15 K) was 7.11 ± 0.37.
For `Cc1cccc(C)c1` [1,3-dimethylbenzene] + CCCC[N+]1(C)CCCC1.N#C[B-](C#N)(C#N)C#N, the activity coefficient (318.15 K) came out at 1.63 ± 0.08; the activity coefficient (323.15 K) turned out to be 1.64 ± 0.08; the activity coefficient (333.15 K) came out at 1.66 ± 0.08; the activity coefficient (343.15 K) is 1.69 ± 0.08; the activity coefficient (353.15 K) amounted to 1.72 ± 0.09.
For `FC(F)(F)C(Cl)Br` (stereo not given) [1-bromo-1-chloro-2,2,2-trifluoroethane] + CCCC[N+]1(C)CCCC1.O=C1O[B-]2(OC1=O)OC(=O)C(=O)O2, the activity coefficient amounted to 1.61 ± 0.08 (333.15 K); 1.66 ± 0.08 (343.15 K); 1.72 ± 0.09 (353.15 K); 1.77 ± 0.09 (363.15 K); 1.82 ± 0.09 (373.15 K).
Take `C1CCOC1` [tetrahydrofuran] + CCCC[N+]1(C)CCCC1.N#C[B-](C#N)(C#N)C#N: the activity coefficient worked out at 0.622 ± 0.033 (318.15 K); 0.632 ± 0.033 (323.15 K); 0.65 ± 0.034 (333.15 K); 0.667 ± 0.034 (343.15 K); 0.683 ± 0.034 (353.15 K).
As for `CCCCCCCC` [octane] + CCCC[N+]1(C)CCCC1.O=C1O[B-]2(OC1=O)OC(=O)C(=O)O2, the activity coefficient reads like this: (333.15 K) 88.8 ± 4.6; (343.15 K) 77.7 ± 4; (353.15 K) 69.3 ± 3.6; (363.15 K) 61.9 ± 3.2; (373.15 K) 56.1 ± 2.9.
Turning to `COCCOC` [1,2-dimethoxyethane] + CCCC[N+]1(C)CCCC1.N#C[B-](C#N)(C#N)C#N, the activity coefficient stood at 0.506 ± 0.031 (318.15 K); 0.524 ± 0.031 (323.15 K); 0.56 ± 0.032 (333.15 K); 0.594 ± 0.032 (343.15 K); 0.628 ± 0.033 (353.15 K).
Consider `C[N+](=O)[O-]` [nitromethane] + CCCC[N+]1(C)CCCC1.O=C1O[B-]2(OC1=O)OC(=O)C(=O)O2, for which the activity coefficient came out at 0.416 ± 0.029 (333.15 K); 0.423 ± 0.029 (343.15 K); 0.43 ± 0.029 (353.15 K); 0.436 ± 0.029 (363.15 K); 0.441 ± 0.029 (373.15 K).
For `CO` [methanol] + CCCC[N+]1(C)CCCC1.N#C[B-](C#N)(C#N)C#N, the activity coefficient was 1.03 ± 0.05 (318.15 K); 0.992 ± 0.043 (323.15 K); 0.931 ± 0.042 (333.15 K); 0.878 ± 0.04 (343.15 K); 0.831 ± 0.039 (353.15 K).
Turning to `ClC(Cl)(Cl)Cl` [tetrachloromethane] + CCCC[N+]1(C)CCCC1.N#C[B-](C#N)(C#N)C#N, the activity coefficient by setting is: (318.15 K) 2.4 ± 0.12; (323.15 K) 2.41 ± 0.12; (333.15 K) 2.43 ± 0.12; (343.15 K) 2.45 ± 0.13; (353.15 K) 2.47 ± 0.13.
In the case of `CCOC(C)=O` [ethyl acetate] + CCCC[N+]1(C)CCCC1.N#C[B-](C#N)(C#N)C#N, the activity coefficient (318.15 K) turned out to be 0.942 ± 0.042; the activity coefficient (323.15 K) is 0.949 ± 0.042; the activity coefficient (333.15 K) is 0.967 ± 0.043; the activity coefficient (343.15 K) worked out at 0.982 ± 0.043; the activity coefficient (353.15 K) turned out to be 1 ± 0.04.
Take `CCCO` [propan-1-ol] + CCCC[N+]1(C)CCCC1.O=C1O[B-]2(OC1=O)OC(=O)C(=O)O2: the activity coefficient turned out to be 2.56 ± 0.13 (333.15 K); 2.3 ± 0.12 (343.15 K); 2.08 ± 0.11 (353.15 K); 1.9 ± 0.1 (363.15 K); 1.76 ± 0.09 (373.15 K).
For `CCO` [ethanol] + CCCC[N+]1(C)CCCC1.O=C1O[B-]2(OC1=O)OC(=O)C(=O)O2, in that order: 1.92 ± 0.1, 1.75 ± 0.09, 1.61 ± 0.08, 1.49 ± 0.07 and 1.38 ± 0.07.
`Cc1ccccc1` [toluene] + CCCC[N+]1(C)CCCC1.O=C1O[B-]2(OC1=O)OC(=O)C(=O)O2: the activity coefficient by setting is: (333.15 K) 2.57 ± 0.13; (343.15 K) 2.52 ± 0.13; (353.15 K) 2.47 ± 0.13; (363.15 K) 2.43 ± 0.12; (373.15 K) 2.4 ± 0.12.
Consider `ClC(Cl)Cl` [trichloromethane] + CCCC[N+]1(C)CCCC1.O=C1O[B-]2(OC1=O)OC(=O)C(=O)O2, for which the activity coefficient reads like this: (333.15 K) 1 ± 0.04; (343.15 K) 1.03 ± 0.05; (353.15 K) 1.06 ± 0.05; (363.15 K) 1.08 ± 0.05; (373.15 K) 1.11 ± 0.05.
In the case of `CC(C)OC(C)C` [diisopropyl ether] + CCCC[N+]1(C)CCCC1.O=C1O[B-]2(OC1=O)OC(=O)C(=O)O2, the activity coefficient is, setting by setting: (333.15 K) 18.4 ± 1; (343.15 K) 17 ± 0.9; (353.15 K) 16 ± 0.8; (363.15 K) 15.1 ± 0.8; (373.15 K) 14.4 ± 0.7.
`COCCOC` [1,2-dimethoxyethane] + CCCC[N+]1(C)CCCC1.O=C1O[B-]2(OC1=O)OC(=O)C(=O)O2: the activity coefficient stood at 1.16 ± 0.05 (333.15 K); 1.2 ± 0.06 (343.15 K); 1.23 ± 0.06 (353.15 K); 1.26 ± 0.06 (363.15 K); 1.29 ± 0.06 (373.15 K).
In the case of `c1ccccc1` [benzene] + CCCC[N+]1(C)CCCC1.N#C[B-](C#N)(C#N)C#N, the activity coefficient by setting is: (318.15 K) 0.833 ± 0.039; (323.15 K) 0.841 ± 0.039; (333.15 K) 0.858 ± 0.039; (343.15 K) 0.874 ± 0.04; (353.15 K) 0.891 ± 0.04.
As for `ClC(Cl)(Cl)Cl` [tetrachloromethane] + CCCC[N+]1(C)CCCC1.O=C1O[B-]2(OC1=O)OC(=O)C(=O)O2, the activity coefficient (333.15 K) stood at 4.23 ± 0.22; the activity coefficient (343.15 K) came out at 4.14 ± 0.21; the activity coefficient (353.15 K) is 4.07 ± 0.21; the activity coefficient (363.15 K) amounted to 4 ± 0.21; the activity coefficient (373.15 K) turned out to be 3.95 ± 0.2.
As for `CCO` [ethanol] + CCCC[N+]1(C)CCCC1.N#C[B-](C#N)(C#N)C#N, the activity coefficient is, setting by setting: (318.15 K) 1.32 ± 0.06; (323.15 K) 1.27 ± 0.06; (333.15 K) 1.17 ± 0.05; (343.15 K) 1.09 ± 0.05; (353.15 K) 1.02 ± 0.05.
In the case of `CO` [methanol] + CCCC[N+]1(C)CCCC1.O=C1O[B-]2(OC1=O)OC(=O)C(=O)O2, the activity coefficient reads like this: (333.15 K) 1.27 ± 0.06; (343.15 K) 1.19 ± 0.05; (353.15 K) 1.11 ± 0.05; (363.15 K) 1.05 ± 0.05; (373.15 K) 0.99 ± 0.043.
For `COC(=O)OC` [dimethyl carbonate] + CCCC[N+]1(C)CCCC1.O=C1O[B-]2(OC1=O)OC(=O)C(=O)O2, in that order: 0.853 ± 0.039, 0.861 ± 0.039, 0.87 ± 0.04, 0.877 ± 0.04 and 0.884 ± 0.04.
For `c1ccccc1` [benzene] + CCCC[N+]1(C)CCCC1.O=C1O[B-]2(OC1=O)OC(=O)C(=O)O2, in that order: 1.65 ± 0.08, 1.63 ± 0.08, 1.61 ± 0.08, 1.6 ± 0.08 and 1.59 ± 0.08.
For `Cc1cccc(C)c1` [1,3-dimethylbenzene] + CCCC[N+]1(C)CCCC1.O=C1O[B-]2(OC1=O)OC(=O)C(=O)O2, in that order: 3.96 ± 0.2, 3.84 ± 0.2, 3.73 ± 0.19, 3.64 ± 0.19 and 3.55 ± 0.18.
For `COC(C)(C)C` [2-methoxy-2-methylpropane] + CCCC[N+]1(C)CCCC1.N#C[B-](C#N)(C#N)C#N, the activity coefficient is 2.39 ± 0.12 (318.15 K); 2.41 ± 0.12 (323.15 K); 2.45 ± 0.13 (333.15 K); 2.48 ± 0.13 (343.15 K); 2.52 ± 0.13 (353.15 K).
As to `CCc1ccccc1` [ethylbenzene] + CCCC[N+]1(C)CCCC1.O=C1O[B-]2(OC1=O)OC(=O)C(=O)O2, the activity coefficient was found to be 3.97 ± 0.2 (333.15 K); 3.85 ± 0.2 (343.15 K); 3.74 ± 0.19 (353.15 K); 3.65 ± 0.19 (363.15 K); 3.56 ± 0.18 (373.15 K).
`CC1CCCCC1` [methylcyclohexane] + CCCC[N+]1(C)CCCC1.N#C[B-](C#N)(C#N)C#N: the activity coefficient runs as follows: (318.15 K) 12.2 ± 0.6; (323.15 K) 11.8 ± 0.6; (333.15 K) 11.2 ± 0.6; (343.15 K) 10.6 ± 0.5; (353.15 K) 10.1 ± 0.5.
Consider `C=CCCCCCC` [oct-1-ene] + CCCC[N+]1(C)CCCC1.O=C1O[B-]2(OC1=O)OC(=O)C(=O)O2, for which the activity coefficient by setting is: (333.15 K) 41.4 ± 2.1; (343.15 K) 37.5 ± 1.9; (353.15 K) 34.3 ± 1.8; (363.15 K) 31.5 ± 1.6; (373.15 K) 29.3 ± 1.5.
For `CC(C)=O` [acetone] + CCCC[N+]1(C)CCCC1.N#C[B-](C#N)(C#N)C#N, the activity coefficient turned out to be 0.445 ± 0.03 (318.15 K); 0.45 ± 0.03 (323.15 K); 0.461 ± 0.03 (333.15 K); 0.471 ± 0.03 (343.15 K); 0.481 ± 0.03 (353.15 K).
For `C[N+](=O)[O-]` [nitromethane] + CCCC[N+]1(C)CCCC1.N#C[B-](C#N)(C#N)C#N, in that order: 0.427 ± 0.029, 0.427 ± 0.029, 0.429 ± 0.029, 0.431 ± 0.029 and 0.433 ± 0.029.
